This note sets out measurements from US20230295066A1, “Process for the Efficient Preparation of (Bio)-Alkanediols” (Symrise AG, priority 2020, published 2023).

Series [1] has as its system Staphylococcus aureus. In words: Minimum Inhibitory Concentration (MIC) test, synergy with antimicrobials. Particulars: for MICC: MIC value for Substance C alone; for MICB: MIC value for Substance B alone; for MICA: MIC value for Substance A alone. It is filed as cell-based. How it is done: (§1) The Minimum Inhibitory Concentration (MIC) test is a test on growth inhibition. The estimation of MICs is executed in 96 well plates. Through the comparison of bacterial growth with positive and negative controls via optical density (OD), different concentrations of given test substances are evaluated.
(§2) Bacteria were cultivated under adjusted conditions based on information of the German Collection of Microorganisms and Cell Cultures (DSMZ) and stored in 50% glycerol prior to use. Afterwards, the following method was applied: Growth medium (according to microorganism) was added to each well of the microplate. Then, the test-substances were added in different concentrations, positive controls (water controls only with medium) and negative controls (benchmarks according to organism). Finally, the microorganisms were added in a concentration of 10^6 CFU/ml (CFU=colony forming units). The incubation of the microplates was carried out at appropriate conditions.
(§3) According to the resulting growth, substance concentrations are labelled either as inhibiting or not and MIC is defined as the lowest concentration where a complete growth inhibition is visible. Experiments at concentration limits (highest concentration labelled as growth and lowest concentration labelled as inhibiting) are performed at least twice.
(§4) Minimum Inhibitory Concentration (MIC) are given in ppm.
The synergistic activity of different combinations of 1,2-nonanediol (C9 nonanediol) and 1,2-heptanediol (C7 heptanediol) as components A and C in combination with different antimicrobial compounds (component B) was determined by measuring the corresponding Minimum Inhibitory Concentrations (MIC).
To verify that the tested combinations act synergistically against microorganisms of the natural microbiota of mammalian skin, a corresponding experiment was conducted with Staphylococcus aureus, a well-known pathogen on the skin. The synergistic activities of 1,2-nonanediol (1,2-C9), 1,2-heptanediol (1,2-C7), 2,3-nonanediol (2,3-C9), 2,3-heptanediol (2,3-C7) and different antimicrobial compounds were determined by measuring the MIC of the mixture as indicated above.
In order to calculate the synergy index with MIC values, the Kull equation (equation 6) was used as follows:
SI=(MICmix×PA)/MICA+(MICmix×PB)/MICB+(MICmix×PC)/MICC Equation (6): Minimum Inhibitory Concentration
wherein • SI is the Synergy Index according to Kull • MICA is the MIC value for Substance A in ppm • MICB is the MIC value for Substance B in ppm • MICC is the MIC value for Substance C in ppm • MICmix is the MIC value for the mixture of substances A and B and C in ppm • PA is the proportion of the substance A in the mixture • PB is the proportion of the substance B in the mixture • PC is the proportion of the substance C in the mixture

Series [2] has as its system Aspergillus brasiliensis. In words: Minimum Inhibitory Concentration (MIC) test, alkanediol mixtures. It is filed as cell-based. The note with it: for MICB: Comp. B alone; for MICA: Comp. A alone. How it is done: as §1, §2, §3, §4
To verify that the tested combinations act synergistically against microorganisms of the natural microbiota of mammalian skin, a corresponding experiment was conducted with Aspergillus brasiliensis, a well-known pathogen on the skin. The synergistic activities of different alkanediol mixtures including a 1,2-alkanediol (substance A) and a 2,3-alkanediol (substance B) in ratios as specified in the following Table 5 were determined by measuring the MIC of the mixture as indicated in methods section.
In order to calculate the synergy index with MIC values, the Kull equation (I) was used as follows:
SI=(MICmix×PA)/MICA+(MICmix×PB)/MICB
wherein • SI is the Synergy Index according to Kull • MICA is the MIC value for Substance A in ppm • MICB is the MIC value for Substance B in ppm • MICmix is the MIC value for the mixture of substances A and B and C in ppm • PA is the proportion of the substance A in the mixture • PB is the proportion of the substance B in the mixture

Series [3] is described as follows: Solubility in sunflower oil. Particulars: result in words. Format: physicochemical.
The subject of series [4] is reactive oxygen species (ROS) on ex vivo skin. The series can be described thus: DCF assay, ROS score on ex vivo skin biopsies. Format: cell-based. The note with it: Cumene hydroperoxide 0.5M. As for the experimental part: A dichlorofluorescein test (DCF) assay was performed in order to determine the amount of reactive oxygen species (ROS) on ex vivo skin treated with different test samples in a lipophilic or an aqueous/alcoholic system as described below.
DCF assay—assay principle: Ex vivo skin was incubated with 2′,7′-dichlorodihydrofluorescein diacetate at 37° C., 5% CO2. After PBS washing, the samples were exposed or not to cumene hydroperoxide. Immediately after exposure, ex vivo skin samples were frozen in liquid nitrogen and 5 μm cryostat sections were made and fixed with acetone to allow the visualization of fluorescence generated by ROS in cells of the reconstructed skins. The resulting fluorescence was measured at EX/EM 504/524 nm. Green fluorescence was quantified in ex vivo skin using ImageJ software. The depth of immunostaining was measured as follows: green DCFH-DE positive cells were automatically detected using Histolab software and the distance between dermal epidermal junction and the deepest positive cells were measured in each condition. Means were compared using a student's test. Two means were considered statistically different when p<0.005.
The image acquisition was performed by using Olympus BX51 microscope and Olympus DP70 camera. For each skin sample two skin sections have been taken and the related fluorescent images acquired and analysed. Thus, for each test condition, 12 images have been acquired and analysed (i.e. 12 data). The analysis of fluorescence has been performed within the dermis area. For each image the upper dermis has been analysed by evaluating the fluorescence through modified Image-J application (NIH, USA). The analysed area is selected from the upper part by following the perimeter of the basal lamina, to the deep dermis, by carefully avoiding the risk of including irregularities and agglomerates, such as blood vessels, sebaceous glands, hair follicles. The obtained value has been normalized upon the dimension of the selected area.
In addition, as positive control an AOX mix is always co-tested, i.e., as benchmark for the ROS analysis. The AOX mix is a mixture of the following antioxidants: 15% vitamin C, 1% vitamin E, 0.5% ferulic acid in a EtOH/H2O (50:50) mixture.
ROS score method description: The pigmentation score is based on the following process steps: • (1) Analysis of the image based on pixel grey intensities; • (2) Selection of an informative area excluding the pixel area not covered from tissue; • (3) Transformation of pixel grey intensities in degrees of L*; • (4) Normalization of the obtained values on the ratio between the selected area and the area of the slide.
An increased level of ROS (reactive oxygen species) led to an increased amount of fluorescence. […]

On to `CCCCC(O)C(C)O` (stereo not drawn) [2,3-C7, 2,3-heptanediol], for which, in series [1], the MICC is 20000 ppm. The MICB in series [2] is given as 7500 ppm. On to `CCCCCCCC(=O)NO` [Capryl hydroxamic acid, reference compound], for which the MICB in series [1] amounted to 1000 ppm.

Consider `CCCC(O)C(C)O` (stereo not drawn) [2,3-C6, 2,3-hexanediol], for which the MICB in series [2] was determined as 20000 ppm.

On to `CCCCCC(O)C(C)O` (stereo not drawn) [2,3-C8, 2,3-octanediol], for which the MICB in series [2] came out at 2500 ppm. In addition, the “Solubility in sunflower oil / oil phase” value in series [3] is given as “good solubility”. As for `CCCCCCC(O)CO` (stereo not drawn) [1,2-C8, 1,2-octanediol], the MICA in series [2] is reported as 2500 ppm. In addition, the “Solubility in sunflower oil / oil phase” value in series [3] is “tends to precipitate or recrystallize”. Consider `O=C(CCc1ccc(O)cc1)Nc1ccccc1C(=O)O` [50 ppm DHAvD, Dihydroavenanthramide D], for which, in series [4] (ex vivo skin, mean of 12 tests), the “ROS score, Mean Score” value was found to be 1.72. Besides, in series [4] (ROS score), the “D percent vs. - A cumene” value was −14%, the “D percent vs. untreated cumene” value was −21% and the “D percent vs. untreated/No cumene” value was 1645%. As for `CCCCCCCC(O)CO` (stereo not drawn) [1,2-C9, 1,2-nonanediol], the MICA in series [1] amounted to 1000 ppm; in series [2], 500 ppm.

As for `CCCCCCC(O)C(C)O` (stereo not drawn) [2,3-C9, 2,3-nonanediol], the MICC in series [1] is reported as 2500 ppm. Also, the MICB in series [2] amounted to 1000 ppm.

Turning to `CCCCCC(O)CO` (stereo not drawn) [1,2-C7, 1,2-heptanediol], the values for the MICA in series [1] and in series [2] were 7500 ppm and 5000 ppm, respectively. As to o-Cymen-5-ol [reference compound], the MICB in series [1] turned out to be 250 ppm.

As for `CCCCC(O)CO` (stereo not drawn) [1,2-C6, 1,2-hexanediol], the MICA in series [2] came out at 7500 ppm.

On to `OCc1ccccc1` [Benzyl alcohol, reference compound], for which the MICB in series [1] is on record as 5000 ppm.
